# Values of other authors as cited in patent US6867197B1, “Method of targeting conjugate molecules to mitochondria” (Mitokor, priority 1995, dated 2005).
# System: mitochondria
# Conditions: high concentrations; NAO is a mitochondrial toxin at these concentrations
compound,measurement,value
"CCCCCCCCC[n+]1c2cc(N(C)C)ccc2cc2ccc(N(C)C)cc21 [NAO, 10N-nonylacridine orange]","concentrations at which electron transport, ATP hydrolysis and Pi-transport are inhibited and respiration disrupted",3 to 10 µM
